In a melting point compilation (Tetko et al.; mined from patent text by program, amines drawn as free bases though some values may be those of a salt) one finds melting point data, which are given here for 32 compounds.

Starred links: 1 amine or outer side, 2 acyl side, 3 side chain; linkers in the order of their positions; H or OH if unused. Residues, ends and D or L forms follow the SMILES beside them. Suc = O=C(CCC(=O)[*:2])[*:1]

For orientation: melting point means the temperature, or range, at which the solid turns liquid. `O=C(Cn1c(-c2ccc(F)cc2)ncc(NC(=O)OCc2ccccc2)c1=O)NC(Cc1ccccc1)C(=O)C(F)(F)F` (configuration not stated): the melting point lay within 103 to 107 °C.

Consider `N#CC1(C#N)C2CC(C(Cl)C2Cl)C1(Cl)Cl` (configuration not stated), for which the melting point turned out to be 126 °C.

`CC(C)n1nc(-c2nc(NCCN(C)C)c(N)nc2-c2ccccc2)ccc1=O`: the melting point is 188 to 189 °C.

The compound `CCOC(=O)C1=C(COCCn2c(C)nc3ccccc32)NC2=C(C(=O)C(C)(C)CC2)C1c1ccccc1Cl` (configuration not stated) had a melting point of 118 to 120 °C.

Regarding `OCc1cc(N2CCCC2)c(Br)cn1`, the melting point lay within 108 to 110 °C.

On to `O=C(N[C@H](Cc1ccc(C(F)(F)F)cc1)[C@@H](O)c1ccc(F)cc1)c1ccc(Oc2ccccc2)cc1` (racemic), for which the melting point was in the range of 186 to 187 °C.

`COC1(c2ccccc2)CCc2c(C)c(O)c(C)c(C)c2O1` (configuration not stated) yielded a melting point of 190 to 192 °C.

As for `Cc1coc(C)c1N(C)c1cc(C(=O)N(C)C)cc2c1nc(C)n2C`, the melting point lay in the range of 163 to 164 °C.

The compound `CCCOc1ccnc2[nH]cc(-c3ccnc(N)n3)c12` showed a melting point greater than 210 °C.

With `CC(C)c1cccc(S(=O)(=O)n2c(CCCC(=O)O)cc3cc(C(F)(F)F)ccc32)c1`, the melting point came to 160 °C.

`O=c1ncn(Cc2ccc(Cl)cc2)c2cc(-c3ccc(OCc4cccnc4)cc3)sc12` registered a melting point of 255 to 257 °C.

Regarding `CCCN(CCC(=O)Nc1c(SC)nc(C)nc1N(CC)CC)c1ccccc1`, the melting point is 147 to 149 °C.

In turn, `CCOC(=O)c1c(C)cc2c(c1C)c(=O)n(-c1ccccc1C(F)(F)F)c(=O)n2CCN1CCN(C(=O)C=Cc2ccccc2)CC1` yielded a melting point of 119 to 120 °C.

For the compound `CCCN1c2ccc3c(c2CC1C(N)=O)CC(N)CC3` (single isomer, unassigned; (+)), the melting point stood at 230 °C.

Turning to `COCOc1cc(CO)n(Cc2ccc(Cl)cc2Cl)n1`, the melting point is 82 to 83 °C.

The compound `CCNC(=O)C1CCCN1C(=O)C(C)NC(=O)CCC(=O)O` (stereo not drawn) (Suc-Ala-Pro-NHEt; configuration not given here) had a melting point of 139 to 141 °C.

On to `CC(C)(C)OC(=O)c1cccc(-c2nc(=O)c3ccccc3s2)n1`, for which the melting point lay within 185 to 186 °C.

The compound `O=CC1=Cc2cc(OCc3ccc(C(F)(F)F)cc3)ccc2OC1` returned a melting point of 108 to 110 °C.

For the compound `O=C1NCC(C(=O)NCCO[N+](=O)[O-])S1` (configuration not stated), the melting point fell in the range of 114 to 115 °C.

For `O=c1[nH]c(C(F)(F)C(F)(F)F)nc2ncc(Br)cc12`, the melting point is 200 to 202 °C.

In turn, `COCCOc1ccc(CCCOC(=O)NS(=O)(=O)NCCOC(C)C)c(Oc2ncc(C(F)(F)F)cc2Cl)c1` registered a melting point of 114 °C.

For `CNC(=O)c1ccccc1Nc1nc(Nc2cc3c(cc2OC)CCN(CCOC)CC3)ncc1Cl`, the melting point lay in the range of 109 to 112 °C.

Compound `Cc1cc(Cl)cnc1N` yielded a melting point of 63 to 64 °C.

As to `O=C(C[C@H](NC(=O)C(F)(F)F)C(=O)O)c1ccc2oc3ccccc3c2c1`, the melting point fell in the range of 140 to 144 °C.

As to `COc1cc(/C=C/S(=O)(=O)CS(=O)(=O)/C=C/c2ccc(O)c(OC)c2)ccc1O`, the melting point was 125 to 127 °C.

In turn, `COc1ccc(C2(/C=C/c3cccc(C#N)c3)CCC(=O)CC2)cc1OC1CCCC1` displayed a melting point of 116 to 117 °C.

In turn, `CCNCC(=O)Nc1c(Cc2nccc3ccccc23)ccc(OC)c1OC` came in with a melting point of 107 to 108 °C.

Regarding `COC(=O)c1ccc(OCCNC(=O)OCc2ccccc2)cc1Cl`, the melting point fell in the range of 88 to 90 °C.

In turn, `CC(C)(C)[Si](C)(C)Oc1ccc2c(c1)oc(=O)c1c3ccc(O[Si](C)(C)C(C)(C)C)cc3oc21` registered a melting point of 118 to 119 °C.

Take `COC(=O)CCCCCCCCCC1=C(C)C(=O)C(OC)=C(OC)C1=O`: the melting point was 37 to 38 °C.

In the case of `O=C(O)C1=Cc2cccc(-c3ccccc3)c2OC1C(F)(F)F` (configuration not stated), the melting point fell in the range of 172 to 175 °C.

Regarding `O=C(Nc1ccc(C(F)(F)F)cc1)Nc1cccc(S(=O)(=O)NCCN2CCOCC2)c1`, the melting point fell in the range of 62 to 65 °C.
